# Experimental data reported in patent publication US10858305B2, “Perillyl alcohol-3-bromopyruvate conjugate and methods of treating cancer” (NeOnc Technologies, Inc., priority 2016, dated 2020).
# Like-named read-outs stand apart in the source and are kept apart here.
# Experiments:
# [1] = tested on: MDA-MB-231 breast cancer cells; assay: LDH release assay in MDA-MB-231 / breast cancer cell lines; assay type: cell-based, human
# Method: (§1) (A) MTT assay was performed after 24 hours. […] (B) LDH assay was performed after […]. LDH release by untreated cells was set to 1. Relative fold increase is shown (n=3).
# (A) MTT assay was performed after 24 hours. Viability of untreated cells was set at 100% (data points are averages of 2 experiments). (B) LDH assay was performed after 24 hours. LDH release by untreated cells was set to 1. Relative fold increase is shown (averages from 2 experiments). (C) Representative photos show typical colony formation after initial 48 hours of drug treatment. In all cases of combination treatment with 3-BP mixed with […] (3-BP+POH), the indicated concentrations refer to each individual drugs, i.e., 100 μM 3-BP+POH means that 100 μM 3-BP was combined with 100 μM POH.
# The capacity for rapid cell killing by NEO218 relative to 3-BP, POH and 3-BP+POH was evaluated via LDH assay, where LDH release is used as a proxy for cell death.
# In FIG. 4, Panels (a) and (b), show the results of treating breast cancer cell lines with increasing concentrations of NEO218, 3-BP, or 3-BP mixed with POH. […] In all cases a-d, the release of LDH (as a marker of cell death) was measured after 24 hours.
# Depending on the cell line, 2000 to 4000 cells per well were seeded in a volume of 50 μL into a 96-well plate. The next day, drugs ere added in an additional 50 μL of medium. At different time points (usually after 24 hours of incubation), 50 μL medium was removed and processed with the LDH Cytotoxicity Assay Kit (Thermo Fisher Scientific, Waltham, Mass.) according to the manufacturer's instructions. This kit measures extracellular LDH in culture medium using an enzymatic reaction that results in a red formazan product, which can be measured spectrophotometrically. The absorbance was measured at 490 and 680 nm. All LDH levels were normalized to untreated controls and presented as fold change of the controls.
# [2] = tested on: tumor cells (two cell lines, incl. MCF7/Dox); assay: Colony formation assay (CFA), 24 hours drug exposure (FIG. 5); assay type: cell-based, human; details: colonies after ten to fifteen days
# Method: The effect of NEO218 on tumor cell survival and colony formation relative to 3-BP, POH and 3-BP+POH was evaluated via the colony formation assay (CFA). Six hundred cells per culture well were seeded and exposed to increasing concentrations of NEO218, 3-BP, a mix of 3-BP+POH, or POH alone. After 24 hours, all drugs were removed from cells and fresh culture medium was added. Ten to fifteen days later, the surviving cells had formed colonies of descendants, which were stained and counted.
# HCT116 cells [3] = assay: Colony formation assay in HCT116 cells; assay type: cell-based, human; details: for IC50: Homo sapiens, HCT-116, HCT116, 48 hours drug then 10-14 days, read-out: half-maximal effect, CFA
# Method: as §1
# Depending on the cell line (and plating efficiency), 250-800 cells were seeded into each well of a 6-well plate and treated as described in detail previously. After 12-16 days, colonies (defined as groups of >50 cells) were visualized by staining for 4 hours with 1% methylene blue (in methanol), and then were-counted. Experiments were repeated at least once, but usually more often under different conditions.
# tumor cells = assay: Cytotoxicity in the presence of necroptosis inhibitor necrostatin-1; assay type: cell-based; details: data not shown
# Description: All our data are highly consistent and point to necrosis as the overwhelmingly dominant mechanism of cell death by both 3-BP and NEO218 in our cell systems, as supported by the following observations: (i) A pan-caspase inhibitor exerted no influence on the cytotoxic IC50 of 3-BP or NEO218 (FIG. 21C). (ii) Several established protein markers of apoptosis show very little, if any, response to drug treatment (FIG. 21B). (iii) Loss of structural integrity of the plasma membrane is a hallmark of necrosis and can be documented via cellular uptake of membrane-impermeant dyes (such as propidium iodide, PI) or cellular leakage of cytosolic enzymes (such as lactate dehydrogenase, LDH). […] The loss of plasma membrane integrity is consistent with cell death induced by the severe ATP depletion observed by us (FIG. 22) and reported by others, because maintenance of the cytoplasmic transmembrane electrochemical gradients is highly energy dependent, and their loss inevitably leads to cell swelling and membrane rupture (i.e., necrosis). (iv) Rapid cell death is another characteristic of necrotic cell death. We detected PI positivity and LDH release within the first 2 hours of drug exposure (see FIG. 21A for PI; time course not shown for LDH). […] Cells were treated with 3-BP or NEO218 in the presence of necrostatin-1 (Nec-1), a commonly used inhibitor of necroptosis.
# HCT116 cells [4] = assay: cells; details: Homo sapiens; for IC50: HCT-116, 24 h, read-out: half-maximal effect, MTT assay
# Method: (A) MTT assay was performed after 24 hours. Viability of untreated cells was set at 100% (n=3).
# Methylthiazoletetrazolium (MTT) assays were performed as described earlier [38]. Briefly, cells were seeded into 96-well plates at 2.0 to 8.0×10^3 cells per well and exposed to drug treatment (or solvent alone) for 24 or 48 hours. In individual experiments, each treatment condition was set up in triplicate, and each experiment was repeated several times independently.
# GAPDH = GAPDH (Homo sapiens, UniProt P04406); assay: GAPDH activity assay after 30 minutes drug treatment of living cells; assay type: cell-based; set-up: endogenous in cells
# Chain of GAPDH (P04406 whole entry): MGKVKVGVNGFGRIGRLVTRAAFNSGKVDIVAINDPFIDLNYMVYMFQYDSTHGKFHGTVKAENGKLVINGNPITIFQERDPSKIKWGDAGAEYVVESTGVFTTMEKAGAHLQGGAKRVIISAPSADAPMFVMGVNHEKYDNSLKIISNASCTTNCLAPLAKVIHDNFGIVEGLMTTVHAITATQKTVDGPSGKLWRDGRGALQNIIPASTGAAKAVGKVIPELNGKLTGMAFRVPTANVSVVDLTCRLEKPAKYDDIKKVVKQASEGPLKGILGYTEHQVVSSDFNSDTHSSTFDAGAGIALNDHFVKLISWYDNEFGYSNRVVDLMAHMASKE
# Method: (A) HCT116 cells were treated with 40 μM 3-BP or NEO218 in the presence or absence of 1 mM NAC, 1 mM GSH, or 50 mM methyl-pyruvate (or sodium pyruvate, which produced similar outcomes). Cell viability was determined 24 hours later by MTT assay. (B) HCT116 cells were treated with 30 or 100 μM 3-BP or NEO218. After 30 minutes, cell lysates were prepared and analyzed for GAPDH activity. (C) Lysates from non-drug-treated MDA-MB-231 cells were mixed with 3-BP or NEO218 in the presence or absence of NAC or GSH at the concentrations mentioned in A. After 1 hour of incubation, GAPDH activity was determined. GAPDH activity in the absence of drug treatment was set at 100% (corresponding to 0.06 units/min×10^6 cells).
# Enzymatic activity of GAPDH in vitro was measured with the Colorimetric GAPDH Assay kit (ScienCell Research Laboratories, Carlsbad, Calif.). This assay is based on the oxidization of β-NADH to β-NAD in the presence of 3-phosphoglyceric acid, ATP and GAPDH. GAPDH activity is determined by assaying the rate of NADH oxidation, which is proportional to the reduction in absorbance at 340 nm over time (ΔA340 nm/min). One hundred thousand cells were lysed in 100 μL cell lysis buffer and incubated with the above components. Changes in absorbance over 10 minutes were calculated and normalized to untreated controls. Data are presented as percentage of controls. […]
Structure (SMILES),"EC50 ([1]; Homo sapiens, MDA-MB-231, 16 hours, read-out: effective concentration (half-maximal), LDH assay) [µM]","inhibition of colony formation, comparison [2]","block of colony formation in CFA (HCT116 cells [3]; HCT116, 40 μM) [%]",IC50 (HCT116 cells [3]) [µM],effect of necrostatin-1 on drug-induced cytotoxic outcome (tumor cells),IC50 (HCT116 cells [4]) [µM],"cytotoxicity at 40 µM (HCT116 cells [4]; HCT-116, read-out: reduction of apparent viability in MTT assay) [%]",IC50 (GAPDH) [µM],"earliest detection of cytotoxic effects (LDH release) after onset of drug treatment ([1]; MDA-MB-231, time course) [h]","time at which half-maximal extent of cell death is reached ([1]; MDA-MB-231, time course of LDH release) [h]","IC50 ([2]; Homo sapiens, MCF7-DOX, read-out: IC50 (cell survival and colony formation)) [µM]","IC50 (GAPDH; HCT116 cells treated 30 minutes, then lysed, read-out: IC50 (GAPDH activity)) [µM]"
"O=C(O)C(=O)CBr [3-BP, 3-bromopyruvate]",~350,substantially less potent,99,~3,no impact of Nec-1 on drug-induced cytotoxic outcome could be detected,~18,75,< 30,–,–,–,–
"C=C(C)[C@@H]1CC=C(COC(=O)C(=O)CBr)CC1 [NEO218, 3-bromo-2-oxo-propionic acid 4-isopropenyl-cyclohex-1-enylmethyl ester]",–,–,–,~3,no impact of Nec-1 on drug-induced cytotoxic outcome could be detected,~18,–,–,1,< 8,< 10,< 30
